# Reference: ChEMBL document CHEMBL1177794, “Broad spectrum alkynyl inhibitors of T315I Bcr-Abl” (Bioorg Med Chem Lett, 2010)
# Experiments:
# [1] = system: Tyrosine-protein kinase ABL1 (Homo sapiens), P00519 [Q252H]; experiment: Inhibition of non phosphorylated ABL1 Q252H mutant at 10 uM; conditions: values are per cent of control
# [2] = biological target: RAC-alpha serine/threonine-protein kinase (Homo sapiens) (UniProt P31749); experiment: Inhibition of AKT1 at 10 uM; conditions: values are per cent of control
# [3] = biological target: Cytoplasmic tyrosine-protein kinase BMX (Homo sapiens) (UniProt P51813); experiment: Inhibition of BMX at 10 uM; conditions: values are per cent of control
# [4] = biological target: Calcium/calmodulin-dependent protein kinase type 1D (Homo sapiens) (UniProt Q8IU85); experiment: Inhibition of CAMK1D at 10 uM; conditions: values are per cent of control
# [5] = biological target: Cyclin-dependent kinase 11A (Homo sapiens) (UniProt Q9UQ88); experiment: Inhibition of CDC2L2 at 10 uM; conditions: values are per cent of control
# Chain of Cyclin-dependent kinase 11A (Homo sapiens) (Q9UQ88 whole entry): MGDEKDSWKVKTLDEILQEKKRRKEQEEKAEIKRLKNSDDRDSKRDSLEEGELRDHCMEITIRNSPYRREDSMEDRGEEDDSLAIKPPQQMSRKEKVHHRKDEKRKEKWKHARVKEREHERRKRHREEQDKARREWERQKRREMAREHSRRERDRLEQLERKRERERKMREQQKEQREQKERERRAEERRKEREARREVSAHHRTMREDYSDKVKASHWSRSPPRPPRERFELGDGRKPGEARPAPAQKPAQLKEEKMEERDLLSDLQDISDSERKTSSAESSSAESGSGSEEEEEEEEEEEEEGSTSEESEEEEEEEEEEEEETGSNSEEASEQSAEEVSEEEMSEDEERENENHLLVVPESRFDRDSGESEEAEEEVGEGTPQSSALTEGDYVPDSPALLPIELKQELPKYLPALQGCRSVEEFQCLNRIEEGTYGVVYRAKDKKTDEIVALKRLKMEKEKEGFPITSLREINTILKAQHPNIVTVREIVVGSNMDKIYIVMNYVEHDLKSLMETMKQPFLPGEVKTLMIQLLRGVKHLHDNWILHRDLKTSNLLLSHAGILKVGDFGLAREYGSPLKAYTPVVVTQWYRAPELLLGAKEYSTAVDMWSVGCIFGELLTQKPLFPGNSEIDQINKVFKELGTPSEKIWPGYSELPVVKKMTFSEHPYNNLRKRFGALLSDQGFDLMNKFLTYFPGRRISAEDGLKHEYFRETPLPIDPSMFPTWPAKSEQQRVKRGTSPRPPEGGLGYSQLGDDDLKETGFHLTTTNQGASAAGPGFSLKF
# [6] = biological target: Myotonin-protein kinase (Homo sapiens) (UniProt Q09013); experiment: Inhibition of DMPK at 10 uM; conditions: values are per cent of control
# [7] = biological target: Rhodopsin kinase GRK7 (Homo sapiens) (UniProt Q8WTQ7); experiment: Inhibition of GRK7 at 10 uM; conditions: values are per cent of control
# Chain of Rhodopsin kinase GRK7 (Homo sapiens) (Q8WTQ7 whole entry): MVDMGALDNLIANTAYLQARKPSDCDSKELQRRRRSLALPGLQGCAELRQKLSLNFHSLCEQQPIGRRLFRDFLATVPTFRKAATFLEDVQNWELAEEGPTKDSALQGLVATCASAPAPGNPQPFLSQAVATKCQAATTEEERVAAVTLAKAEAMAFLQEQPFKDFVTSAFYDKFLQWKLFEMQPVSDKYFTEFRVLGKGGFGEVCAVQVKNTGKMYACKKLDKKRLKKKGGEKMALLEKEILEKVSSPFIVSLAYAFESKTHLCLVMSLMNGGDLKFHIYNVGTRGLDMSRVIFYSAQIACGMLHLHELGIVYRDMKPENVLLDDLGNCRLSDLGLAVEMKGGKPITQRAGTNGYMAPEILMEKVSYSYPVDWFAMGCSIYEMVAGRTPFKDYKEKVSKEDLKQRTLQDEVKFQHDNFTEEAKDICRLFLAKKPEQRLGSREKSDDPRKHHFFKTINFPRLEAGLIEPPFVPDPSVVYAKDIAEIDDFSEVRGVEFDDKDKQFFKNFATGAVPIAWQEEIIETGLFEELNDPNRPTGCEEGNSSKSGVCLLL
# [8] = biological target: Glycogen synthase kinase-3 alpha (Homo sapiens) (UniProt P49840); experiment: Inhibition of GSK3A at 10 uM; conditions: values are per cent of control
# [9] = biological target: Serine/threonine-protein kinase ICK (Homo sapiens) (UniProt Q9UPZ9); experiment: Inhibition of ICK at 10 uM; conditions: values are per cent of control
# Chain of Serine/threonine-protein kinase ICK (Homo sapiens) (Q9UPZ9 whole entry): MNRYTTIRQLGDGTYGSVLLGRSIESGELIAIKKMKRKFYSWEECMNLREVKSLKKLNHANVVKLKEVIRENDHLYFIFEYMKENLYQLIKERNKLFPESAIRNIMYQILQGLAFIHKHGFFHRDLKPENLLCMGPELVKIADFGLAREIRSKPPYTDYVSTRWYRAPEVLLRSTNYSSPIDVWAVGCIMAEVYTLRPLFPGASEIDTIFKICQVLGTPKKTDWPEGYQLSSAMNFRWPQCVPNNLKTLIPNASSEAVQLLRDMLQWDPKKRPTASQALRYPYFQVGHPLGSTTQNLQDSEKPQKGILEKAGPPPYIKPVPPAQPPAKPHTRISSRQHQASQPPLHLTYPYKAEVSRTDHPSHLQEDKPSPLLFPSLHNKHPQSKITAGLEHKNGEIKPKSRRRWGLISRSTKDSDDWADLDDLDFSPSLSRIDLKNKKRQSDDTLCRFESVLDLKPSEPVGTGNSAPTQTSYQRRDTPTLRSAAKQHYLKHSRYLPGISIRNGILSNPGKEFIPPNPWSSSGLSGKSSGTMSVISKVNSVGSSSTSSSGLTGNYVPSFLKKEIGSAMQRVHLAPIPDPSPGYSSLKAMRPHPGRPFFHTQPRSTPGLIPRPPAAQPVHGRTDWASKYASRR
# [10] = biological target: Mitogen-activated protein kinase kinase kinase 4 (Homo sapiens) (UniProt Q9Y6R4); experiment: Inhibition of MAP3K4 at 10 uM; conditions: values are per cent of control
# [11] = biological target: Serine/threonine-protein kinase MARK1 (Homo sapiens) (UniProt Q9P0L2); experiment: Inhibition of MARK1 at 10 uM; conditions: values are per cent of control
# [12] = system: Hepatocyte growth factor receptor (Homo sapiens), P08581 [Y1235D]; experiment: Inhibition of MET Y1235D mutant at 10 uM
# [13] = biological target: Myosin light chain kinase family member 4 (Homo sapiens) (UniProt Q86YV6); experiment: Inhibition of MYLK4 at 10 uM
# [14] = biological target: Myosin-IIIa (Homo sapiens) (UniProt Q8NEV4); experiment: Inhibition of MYO3A at 10 uM
# [15] = biological target: SRSF protein kinase 3 (Homo sapiens) (UniProt Q9UPE1); experiment: Inhibition of SRPK3 at 10 uM
# [16] = biological target: Tyrosine-protein kinase SYK (Homo sapiens) (UniProt P43405); experiment: Inhibition of SYK at 10 uM
# [17] = biological target: Serine/threonine-protein kinase tousled-like 1 (Homo sapiens) (UniProt Q9UKI8); experiment: Inhibition of TLK1 at 10 uM
# [18] = biological target: Non-receptor tyrosine-protein kinase TNK1 (Homo sapiens) (UniProt Q13470); experiment: Inhibition of TNK1 at 10 uM; conditions: values are per cent of control
# [19] = biological target: Mitogen-activated protein kinase kinase kinase 20 (Homo sapiens) (UniProt Q9NYL2); experiment: Inhibition of ZAK at 10 uM; conditions: values are per cent of control
# [20] = biological target: Serine/threonine-protein kinase pim-1 (Homo sapiens) (UniProt P11309); experiment: Inhibition of PIM1 at 10 uM
# [21] = biological target: Serine/threonine-protein kinase N1 (Homo sapiens) (UniProt Q16512); experiment: Inhibition of PKN1 at 10 uM
# [22] = biological target: Ribosomal protein S6 kinase alpha-1 (Homo sapiens) (UniProt Q15418); experiment: Inhibition of RSK1 N-terminal domain1 at 10 uM
# [23] = biological target: Ribosomal protein S6 kinase beta-1 (Homo sapiens) (UniProt P23443); experiment: Inhibition of S6K1 at 10 uM
# Chain of Ribosomal protein S6 kinase beta-1 (Homo sapiens) (P23443 whole entry, looked up): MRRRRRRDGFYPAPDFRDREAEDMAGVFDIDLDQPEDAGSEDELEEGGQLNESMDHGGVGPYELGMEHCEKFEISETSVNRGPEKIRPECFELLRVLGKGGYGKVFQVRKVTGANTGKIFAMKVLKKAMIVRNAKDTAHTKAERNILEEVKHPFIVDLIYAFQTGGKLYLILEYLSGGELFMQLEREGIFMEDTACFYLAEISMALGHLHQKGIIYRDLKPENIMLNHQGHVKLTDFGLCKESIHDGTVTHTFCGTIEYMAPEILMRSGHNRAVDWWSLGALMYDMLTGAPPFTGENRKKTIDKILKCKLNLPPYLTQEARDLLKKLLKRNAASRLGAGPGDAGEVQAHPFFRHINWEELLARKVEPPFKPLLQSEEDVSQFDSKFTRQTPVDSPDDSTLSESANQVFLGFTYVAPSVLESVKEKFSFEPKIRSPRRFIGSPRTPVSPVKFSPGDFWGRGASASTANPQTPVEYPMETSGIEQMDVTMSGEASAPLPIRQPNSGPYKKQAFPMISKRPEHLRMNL
# [24] = biological target: NUAK family SNF1-like kinase 2 (Homo sapiens) (UniProt Q9H093); experiment: Inhibition of SNARK at 10 uM
# [25] = biological target: Serine/threonine-protein kinase PAK 3 (Homo sapiens) (UniProt O75914); experiment: Inhibition of PAK3 at 10 uM; values are per cent of control
# [26] = biological target: Serine/threonine-protein kinase Chk1 (Homo sapiens) (UniProt O14757); experiment: Inhibition of CHEK1 at 10 uM; values are per cent of control
# [27] = biological target: Receptor tyrosine-protein kinase erbB-3 (Homo sapiens) (UniProt P21860); experiment: Inhibition of ERBB3 at 10 uM; values are per cent of control
# [28] = biological target: Interleukin-1 receptor-associated kinase 1 (Homo sapiens) (UniProt P51617); experiment: Inhibition of IRAK1 at 10 uM; values are per cent of control
# [29] = biological target: Serine/threonine-protein kinase LATS1 (Homo sapiens) (UniProt O95835); experiment: Inhibition of LATS1 at 10 uM; values are per cent of control
# [30] = biological target: Cyclin-dependent kinase 11B (Homo sapiens) (UniProt P21127); experiment: Inhibition of CDC2L1 at 10 uM; values are per cent of control
# [31] = biological target: Platelet-derived growth factor receptor beta (Homo sapiens) (UniProt P09619); experiment: Inhibition of PDGFRB at 10 uM; values are per cent of control
# Chain of Platelet-derived growth factor receptor beta (Homo sapiens) (P09619 whole entry, canonical isoform): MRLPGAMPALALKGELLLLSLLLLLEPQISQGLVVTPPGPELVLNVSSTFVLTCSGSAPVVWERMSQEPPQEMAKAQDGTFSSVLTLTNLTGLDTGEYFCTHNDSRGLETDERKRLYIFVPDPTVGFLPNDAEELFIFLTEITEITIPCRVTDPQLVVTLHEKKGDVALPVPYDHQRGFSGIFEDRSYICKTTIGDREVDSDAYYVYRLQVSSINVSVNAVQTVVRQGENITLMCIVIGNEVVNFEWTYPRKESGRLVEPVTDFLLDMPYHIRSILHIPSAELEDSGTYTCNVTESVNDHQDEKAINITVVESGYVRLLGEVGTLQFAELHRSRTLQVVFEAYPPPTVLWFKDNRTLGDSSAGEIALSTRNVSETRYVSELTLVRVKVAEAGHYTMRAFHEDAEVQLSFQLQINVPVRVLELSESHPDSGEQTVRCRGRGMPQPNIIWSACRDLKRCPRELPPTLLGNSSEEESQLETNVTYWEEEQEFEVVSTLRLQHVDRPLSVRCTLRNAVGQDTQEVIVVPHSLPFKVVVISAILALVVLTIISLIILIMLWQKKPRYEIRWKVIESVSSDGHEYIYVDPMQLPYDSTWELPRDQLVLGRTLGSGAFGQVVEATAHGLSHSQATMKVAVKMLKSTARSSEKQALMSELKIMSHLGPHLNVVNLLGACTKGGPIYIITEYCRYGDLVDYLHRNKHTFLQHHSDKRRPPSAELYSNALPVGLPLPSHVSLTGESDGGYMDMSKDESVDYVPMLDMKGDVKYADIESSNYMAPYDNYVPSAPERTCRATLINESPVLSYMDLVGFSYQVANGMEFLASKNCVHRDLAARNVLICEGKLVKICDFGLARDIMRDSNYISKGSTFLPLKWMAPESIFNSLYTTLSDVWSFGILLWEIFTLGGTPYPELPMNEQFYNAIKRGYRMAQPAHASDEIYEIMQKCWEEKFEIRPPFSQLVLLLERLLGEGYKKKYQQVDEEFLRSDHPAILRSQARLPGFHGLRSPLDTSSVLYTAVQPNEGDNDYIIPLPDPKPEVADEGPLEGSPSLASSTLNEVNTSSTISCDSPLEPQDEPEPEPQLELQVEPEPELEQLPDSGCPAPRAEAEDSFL
# [32] = biological target: Casein kinase I isoform alpha (Homo sapiens) (UniProt P48729); experiment: Inhibition of CSNK1A1 at 10 uM; values are per cent of control
# [33] = biological target: Casein kinase I isoform gamma-1 (Homo sapiens) (UniProt Q9HCP0); experiment: Inhibition of CSNK1G1 at 10 uM; values are per cent of control
# [34] = biological target: Cyclin-dependent kinase 4/cyclin D1 (Homo sapiens) (UniProt P11802+P24385); experiment: Inhibition of CDK4/cyclin D1 at 10 uM; values are per cent of control
# [35] = system: Proto-oncogene tyrosine-protein kinase receptor Ret (Homo sapiens), P07949 [V804L]; experiment: Inhibition of RET V804L mutant at 10 uM; values are per cent of control
# [36] = system: Proto-oncogene tyrosine-protein kinase receptor Ret (Homo sapiens), P07949 [V804M]; experiment: Inhibition of RET V804M mutant at 10 uM; values are per cent of control
# [37] = system: Epidermal growth factor receptor (Homo sapiens), P00533 [L858R,T790M]; experiment: Inhibition of EGFR L858R, T790M mutant at 10 uM; values are per cent of control
# [38] = system: Epidermal growth factor receptor (Homo sapiens), P00533 [UNDEFINED MUTATION]; experiment: Inhibition of EGFR L747-E749del, A750P mutant at 10 uM; values are per cent of control
# Chain of Epidermal growth factor receptor (Homo sapiens), P00533 [UNDEFINED MUTATION] (P00533 whole entry, looked up, stated change not applied): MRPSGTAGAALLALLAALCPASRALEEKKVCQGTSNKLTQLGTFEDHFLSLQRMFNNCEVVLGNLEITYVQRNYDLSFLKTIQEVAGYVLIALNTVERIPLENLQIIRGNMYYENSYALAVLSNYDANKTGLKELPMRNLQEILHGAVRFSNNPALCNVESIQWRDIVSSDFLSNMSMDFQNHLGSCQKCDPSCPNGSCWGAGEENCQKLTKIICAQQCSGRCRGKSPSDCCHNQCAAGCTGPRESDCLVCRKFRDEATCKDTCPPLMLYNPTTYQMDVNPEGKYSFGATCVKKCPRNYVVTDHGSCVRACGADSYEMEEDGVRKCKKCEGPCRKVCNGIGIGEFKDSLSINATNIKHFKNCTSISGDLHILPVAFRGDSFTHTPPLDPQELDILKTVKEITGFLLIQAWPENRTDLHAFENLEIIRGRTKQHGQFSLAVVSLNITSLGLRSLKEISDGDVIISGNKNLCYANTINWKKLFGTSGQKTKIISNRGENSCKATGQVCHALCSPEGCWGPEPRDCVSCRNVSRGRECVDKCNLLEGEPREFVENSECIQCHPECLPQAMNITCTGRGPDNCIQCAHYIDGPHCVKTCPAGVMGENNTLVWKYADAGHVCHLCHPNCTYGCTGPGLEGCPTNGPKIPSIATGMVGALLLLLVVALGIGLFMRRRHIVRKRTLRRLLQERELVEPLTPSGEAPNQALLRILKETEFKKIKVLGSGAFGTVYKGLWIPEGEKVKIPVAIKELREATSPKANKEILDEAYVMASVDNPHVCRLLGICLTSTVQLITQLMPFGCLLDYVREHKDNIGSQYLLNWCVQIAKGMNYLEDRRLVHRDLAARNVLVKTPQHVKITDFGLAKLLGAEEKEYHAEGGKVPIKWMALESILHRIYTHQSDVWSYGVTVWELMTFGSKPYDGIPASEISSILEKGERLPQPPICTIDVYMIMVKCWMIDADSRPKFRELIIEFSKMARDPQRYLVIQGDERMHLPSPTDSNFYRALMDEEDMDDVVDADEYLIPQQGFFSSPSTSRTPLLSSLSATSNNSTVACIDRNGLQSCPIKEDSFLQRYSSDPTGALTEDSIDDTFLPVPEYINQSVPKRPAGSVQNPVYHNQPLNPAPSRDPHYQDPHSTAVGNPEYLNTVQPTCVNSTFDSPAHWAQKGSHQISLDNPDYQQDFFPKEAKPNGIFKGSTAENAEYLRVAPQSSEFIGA
# [39] = system: Epidermal growth factor receptor (Homo sapiens), P00533 [UNDEFINED MUTATION]; experiment: Inhibition of EGFR L747-S752del, P753S mutant at 10 uM; values are per cent of control
SMILES,"residual binding, % of control [1] [%]","residual binding, % of control [2] [%]","residual binding, % of control [3] [%]","residual binding, % of control [4] [%]","residual binding, % of control [5] [%]","residual binding, % of control [6] [%]","residual binding, % of control [7] [%]","residual binding, % of control [8] [%]","residual binding, % of control [9] [%]","residual binding, % of control [10] [%]","residual binding, % of control [11] [%]",inhibition [12] [%],inhibition [13] [%],inhibition [14] [%],inhibition [15] [%],inhibition [16] [%],inhibition [17] [%],"residual binding, % of control [18] [%]","residual binding, % of control [19] [%]",inhibition [20] [%],also measured
CCN1CCN(Cc2ccc(NC(=O)c3ccc(C)c(C#Cc4cnc5[nH]ccc5c4)c3)cc2C(F)(F)F)CC1,1.6,41,2.6,68,0,27,100,100,96,62,100,4.9,40,15,11,1,93,0.8,0.25,100,"inhibition [21]: 28%; inhibition [22]: 34%; inhibition [23]: 3.2%; inhibition [24]: 84%; % of control [25]: 1.1%; level, % of control [26]: 88%; level, % of control [27]: 89%; level, % of control [28]: 6.2%; level, % of control [29]: 3.4%; level, % of control [30]: 0%; level, % of control [31]: 0%; level, % of control [32]: 89%; level, % of control [33]: 100%; level, % of control [34]: 29%; level, % of control [35]: 0%; level, % of control [36]: 0%; level, % of control [37]: 100%; level, % of control [38]: 0.25%; level, % of control [39]: 0.8%"
CCN1CCN(Cc2ccc(NC(=O)c3ccc(C)c(C#Cc4cccnc4)c3)cc2C(F)(F)F)CC1,6.4,81,2.7,72,1.6,100,100,100,80,100,83,61,68,3.2,45,13,93,0,0.4,84,"inhibition [21]: 85%; inhibition [22]: 53%; inhibition [23]: 11%; inhibition [24]: 99%; % of control [25]: 3.3%; level, % of control [26]: 80%; level, % of control [27]: 100%; level, % of control [28]: 1.2%; level, % of control [29]: 20%; level, % of control [30]: 2.5%; level, % of control [31]: 0%; level, % of control [32]: 75%; level, % of control [33]: 100%; level, % of control [34]: 21%; level, % of control [35]: 0%; level, % of control [36]: 0%; level, % of control [37]: 100%; level, % of control [38]: 1.2%; level, % of control [39]: 0.9%"
